≈ marks a conversion by molar mass, not a printed value. Like-named read-outs stand apart in the source and are kept apart here. A value given as a limit tells only on which side of the number the result lay.

The subject of series [1] is SKOV-3 (human ovarian). Nature of the series: SRB assay, in vitro antitumor effect against SKOV-3. In kind it is cell-based. The note with it: SK-OV-3, 48 hours; for IC50: Homo sapiens, read-out: ED50 (the source's name). The method in brief:
(§1)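 Read-out is OD at 520 nm after sulforhodamine B staining of TCA-fixed cells, following 48 h drug exposure (DMSO kept under 0.5%). Values compare treated (T), untreated (C) and time-zero (Tz) wells, giving growth inhibition above Tz and net killing below it.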

Series [2] is described as follows: Acute toxicity test (LD50), Litchfield-Wilcoxon method. The settings on record: mouse, in vivo, ip, male ICR mice, 14 days. On the procedure:
Acute toxicity test (LD50): Litchfield-Wilcoxon method.
6 weeks old ICR mice(male 30±2.0 g) were fed freely with solid feed and water at room temperature, 23±1° C. and at humidity 60±5%. Sample drugs were injected into the abdominal cavities of mice, while each group comprises 6 mice. Observed during 14 days, external appearances and life or dead were recorded, and then, visible pathogenies were observed from dead animals by dissection. LD50 value was calculated by Litchfiled-wilcoxon method.

In series [3] the test system is mouse leukemia P388 cells. Nature of the series: In vivo antitumor effects against mouse leukemia P388 cells in BDF1 mice. The note with it: P388, ip, abdominal cavity. On the procedure:
In vivo antitumor effects against mouse leukemia P388 cells.
1) Leukemia P388 cells being transfer-cultured successively in DBA/2 mouse, were grafted into each mouse of a group comprising 8 mice of 6 week old BDF1 mouse with the dose of 1×10^6 cells/0.1 ml. […]
3) With observation everyday, survival times of tested mice were measured. Antitumor activities was determined in such a manner that the increasing ratio(T/C%) of average survival days of drug-treated groups compared with the control group was calculated using the mean survival times of each tested groups.

Series [4] has as its system XF 498 (human CNS). Nature of the series: SRB assay, in vitro antitumor effect against XF 498. The settings on record: XF-498, 48 hours; for IC50: Homo sapiens, XF498, read-out: ED50 (the source's name). In kind it is cell-based. The method in brief: as §1
A general note: In SRB staining, fixed cells bind dye roughly in proportion to their protein.

Series [5] concerns HCT-15 (human colon). Nature of the series: SRB assay, in vitro antitumor effect against HCT-15. The settings on record: HCT 15, 48 hours; for IC50: Homo sapiens, read-out: ED50 (the source's name). In kind it is cell-based. The method in brief:
as §1

The test system of series [6] is SKMEL-2 (human melanoma). The series can be described thus: SRB assay, in vitro antitumor effect against SKMEL-2. In kind it is cell-based. The settings on record: SK-MEL-2, 48 hours; for IC50: Homo sapiens, read-out: ED50 (the source's name). The method in brief: as §1
For series [7], the system named is A549 (human non-small lung cell). The series can be described thus: SRB assay, in vitro antitumor effect against A549. The series is classed as cell-based. The settings on record: A549, 48 hours; for IC50: Homo sapiens, read-out: ED50 (the source's name). The method in brief:
as §1

[8] abbreviates: nine everyday, read-out: T/C(%).
Where [9] appears, read: on days 1, 5, 9, read-out: T/C(%).
Where [10] appears, read: on days 1, 4, 8, read-out: T/C(%).

The term LD50 denotes the dose at which mortality reaches 50%. The low end stands for greater toxicity, the high end for lower toxicity. For `C=Cc1cc(NC(=O)N2CCN(c3cc(C)cc(C)c3)CC2)c(OC)nc1C` [Example 74, 1-[(2-Methoxy-6-methyl-5-vinylpyridin-3-yl)aminocarbonyl]-4-(3,5-dimethylphenyl)piperazine], the IC50 in series [1] came out at 0.0138 µg/mL (≈ 0.0363 µM); in series [4] it was 0.026 µg/mL (≈ 0.0683 µM); in series [5] it was 0.021 µg/mL (≈ 0.0552 µM); in series [6] it was 0.02 µg/mL (≈ 0.0526 µM); in series [7] it was 0.016 µg/mL (≈ 0.0421 µM). For the same compound, in series [2], the LD50 at 336 h came to 361 mg/kg. Besides, in series [3] (10 mg/kg, nine everyday, read-out: T/C(%)), the response vs control in vivo at 10 mg/kg worked out at 140%. Besides, in series [3] (setting [8]), the response vs control in vivo at 25 mg/kg came to 150%. Also, the response vs control in vivo at 50 mg/kg in series [3] (setting [8]) was 250%.

As for `COc1cc(C)c(C)cc1NC(=O)N1CCN(c2cc(-c3ccccc3)ccc2OC)CC1` [Example 186, 1-[(4,5-Dimethyl-2-methoxyphenyl)aminocarbonyl]-4-(2-methoxy-5-phenylphenyl)piperazine], the median lethal dose (LD50) at 336 h in series [2] was above 2000 mg/kg.

On to `COc1cc(C)c(C)cc1NC(=O)N1CCN(c2cccc(OC(C)=O)c2)CC1` [Example 182, 1-[(4,5-Dimethyl-2-methoxyphenyl)aminocarbonyl]-4-(3-acetoxyphenyl)piperazine], for which the LD50 at 336 h in series [2] came to 348 mg/kg.

With `COc1nc2ccccc2cc1NC(=O)N1CCN(c2cc(C)cc(C)c2)CC1` [Example 82, 1-[(2-Methoxyquinolin-3-yl)aminocarbonyl]-4-(3,5-dimethylphenyl)piperazine], the IC50 in series [1] stood at 0.0249 µg/mL (≈ 0.0638 µM); in series [4], 0.0479 µg/mL (≈ 0.123 µM); in series [5], 0.0346 µg/mL (≈ 0.0886 µM); in series [6] it was 0.0754 µg/mL (≈ 0.193 µM); in series [7], 0.0676 µg/mL (≈ 0.173 µM). Besides, the LD50 at 336 h in series [2] is 700 mg/kg. For the same compound, in series [3] (setting [9]), the response vs control in vivo at 50 mg/kg stood at 100%. Also, in series [3] (setting [9]), the response vs control in vivo at 100 mg/kg turned out to be 127%.

As for `COc1nc(C)c(C)cc1NC(=S)N1CCN(c2cc(C)cc(C)c2)CC1` [Example 22, 1-[(5,6-Dimethyl-2-methoxypyridin-3-yl)aminothiocarbonyl]-4-(3,5-dimethylphenyl)piperazine], the IC50 in series [1] is 0.006 µg/mL (≈ 0.0156 µM); in series [4], 0.0053 µg/mL (≈ 0.0138 µM); in series [5], 0.01 µg/mL (≈ 0.026 µM); in series [6] it was 0.027 µg/mL (≈ 0.0702 µM); in series [7] it was 0.0009 µg/mL (≈ 0.00234 µM). For the same compound, in series [2], the LD50 at 336 h was above 2000 mg/kg. The response vs control in vivo at 25 mg/kg in series [3] (setting [8]) stood at 110%. In addition, the response vs control in vivo at 50 mg/kg in series [3] (setting [8]) stood at 140%. The response vs control in vivo at 100 mg/kg in series [3] (setting [8]) is 150%.

As to `COc1nc(C)c(C(C)O)cc1NC(=O)N1CCN(c2cc(C)cc(C)c2)CC1` (centres unmarked) [Example 57, 1-{[5-(1-Hydroxyethyl)-2-methoxy-6-methylpyridin-3-yl]aminocarbonyl}-4-(3,5-dimethylphenyl)piperazine], the IC50 worked out at 0.15 µg/mL (≈ 0.376 µM) in series [1]; 0.22 µg/mL (≈ 0.552 µM) in series [4]; 0.25 µg/mL (≈ 0.627 µM) in series [5]; 0.18 µg/mL (≈ 0.452 µM) in series [6]; 0.27 µg/mL (≈ 0.678 µM) in series [7]. Besides, in series [2], the LD50 at 336 h came out at 455 mg/kg.

`C=C(C)c1ccccc1N1CCN(C(=O)Nc2cc(C)c(C)cc2OC)CC1` [Example 187, 1-[(4,5-Dimethyl-2-methoxyphenyl)aminocarbonyl]-4-(2-isopropenylphenyl)piperazine] gave an LD50 at 336 h in series [2] of 418 mg/kg.

As for `CCc1nc(OC)c(NC(=O)N2CCN(c3cc(OC)cc(OC)c3)CC2)cc1C` [Example 12, 1-[(6-Ethyl-2-methoxy-5-methylpyridin-3-yl)aminocarbonyl]-4-(3,5-dimethoxyphenyl)piperazine], in series [2], the LD50 at 336 h came to 165 mg/kg.

As to `COc1nc(C)c(C)cc1N(C)C(=O)N1CCN(c2cc(C)cc(C)c2)CC1` [Example 135, 1-[N-(5,6-Dimethyl-2-methoxypyridin-3-yl)-N-methylaminocarbonyl]-4-(3,5-dimethylphenyl)piperazine], the IC50 in series [1] is 0.092 µg/mL (≈ 0.241 µM); in series [4], 0.06 µg/mL (≈ 0.157 µM); in series [5] it was 0.066 µg/mL (≈ 0.173 µM); in series [6], 0.102 µg/mL (≈ 0.267 µM); in series [7], 0.056 µg/mL (≈ 0.146 µM). Further, the response vs control in vivo at 25 mg/kg in series [3] (setting [8]) is 100%. In series [3] (setting [8]), the response vs control in vivo at 50 mg/kg was found to be 110%. In series [3] (setting [8]), the response vs control in vivo at 100 mg/kg is 150%.

With `COc1cc(OC)cc(N2CCN(C(=O)N(C)c3cc4ccccc4nc3OC)CC2)c1` [Example 98, 1-[N-(2-Methoxyquinolin-3-yl)-N-methylaminocarbonyl]-4-(3,5-dimethoxyphenyl)piperazine], in series [3] (setting [8]), the response vs control in vivo at 25 mg/kg was 110%, the response vs control in vivo at 50 mg/kg was determined as 110% and the response vs control in vivo at 100 mg/kg was 150%.

Consider `CCc1cc(N(C)C(=O)N2CCN(c3cc(C)cc(C)c3)CC2)c(OC)nc1C` [Example 144, 1-[N-(5-Ethyl-2-methoxy-6-methylpyridin-3-yl)-N-methylaminocarbonyl]-4-(3,5-dimethylphenyl)piperazine], for which, in series [3] (setting [8]), the response vs control in vivo at 50 mg/kg was 110%, the response vs control in vivo at 100 mg/kg turned out to be 110% and the response vs control in vivo at 200 mg/kg came out at 125%.

In turn, `CCc1nc(OC)c(NC(=O)N2CCN(c3cc(C)cc(C)c3)CC2)cc1C` [Example 13, 1-[(6-Ethyl-2-methoxy-5-methylpyridin-3-yl)aminocarbonyl]-4-(3,5-dimethylphenyl)piperazine] displayed an LD50 at 336 h in series [2] of 285 mg/kg.

As for `CCCc1nc(OC)c(NC(=S)N2CCN(c3cccc(O)c3)CC2)cc1C` [Example 28, 1-[(2-Methoxy-5-methyl-6-propylpyndin-3-yl)aminothiocarbonyl]-4-(3-hydroxyphenyl)piperazine], the IC50 in series [1] was 0.07 µg/mL (≈ 0.175 µM); in series [4], 0.41 µg/mL (≈ 1.02 µM); in series [5] it was 0.05 µg/mL (≈ 0.125 µM); in series [6] it was 0.001 µg/mL (≈ 0.0025 µM); in series [7] it was 0.06 µg/mL (≈ 0.15 µM). Also, the LD50 at 336 h in series [2] is above 2000 mg/kg.

Turning to `CCCc1cc(NC(=O)N2CCN(c3cc(OC)cc(OC)c3)CC2)c(OC)nc1C` [Example 8, 1-[(2-Methoxy-6-methyl-5-propylpyridin-3-yl)aminocarbonyl]-4-(3,5-dimethoxyphenyl)piperazine], the LD50 at 336 h in series [2] was 707 mg/kg. Also, in series [3] (setting [9]), the response vs control in vivo at 100 mg/kg was 104% and the response vs control in vivo at 200 mg/kg turned out to be 141%.

Consider `COc1cc(OC)cc(N2CCN(C(=O)Nc3cc(C)c(C)cc3OC)CC2)c1` [Example 171, 1-[(4,5-Dimethyl-2-methoxyphenyl)aminocarbonyl]-4-(3,5-dimethoxyphenyl)piperazine], for which the IC50 amounted to 0.00372 µg/mL (≈ 0.00931 µM) in series [1]; 0.000572 µg/mL (≈ 0.00143 µM) in series [4]; 0.00181 µg/mL (≈ 0.00453 µM) in series [5]; 0.00323 µg/mL (≈ 0.00809 µM) in series [6]; 0.000645 µg/mL (≈ 0.00161 µM) in series [7]. In series [3] (setting [10]), the response vs control in vivo at 25 mg/kg was found to be 100%. In series [3] (setting [10]), the response vs control in vivo at 50 mg/kg turned out to be 100%. The response vs control in vivo at 100 mg/kg in series [3] (setting [10]) was determined as 140%.

Take `COc1ccc(C)c(N2CCN(C(=O)Nc3cc(C)c(C)cc3OC)CC2)c1` [Example 184, 1-[(4,5-Dimethyl-2-methoxyphenyl)aminocarbonyl]-4-(5-methoxy-2-methylphenyl)piperazine]: the IC50 in series [1] was 0.34 µg/mL (≈ 0.887 µM); in series [4], 0.12 µg/mL (≈ 0.313 µM); in series [5], 0.2 µg/mL (≈ 0.522 µM); in series [6], 0.17 µg/mL (≈ 0.443 µM); in series [7] it was 0.28 µg/mL (≈ 0.73 µM). The compound also gave an LD50 at 336 h in series [2] of 309 mg/kg.

Regarding `COc1cc(C)c(C)cc1NC(=O)N1CCN(c2ccccc2)CC1` [Example 170, 1-[(4,5-Dimethyl-2-methoxyphenyl)aminocarbonyl]-4-phenylpiperzine], the LD50 at 336 h in series [2] worked out at 573 mg/kg.

Turning to “1-{[2-(Pyridin-2-yl)quinolin-4-yl]aminocarbonyl}-4-(3,5-dimethoxyphenyl)piperazine [Example 128]”, the ED50 in series [1] turned out to be 0.37 µg/mL; in series [4], 0.44 µg/mL; in series [5], 0.51 µg/mL; in series [6] it was 0.42 µg/mL; in series [7], 0.40 µg/mL.

Source of the values: patent US6028195A, “Piperazine derivatives and process for the preparation thereof” (Samjin Pharmaceutical Co., Ltd., priority 1996, dated 2000).
